Test results: the CheMixHub viscosity set
“And” between values parts separate entries of the source, which are not always exact repeats. Equal values may be shown once.

Legend:
[1] = xn = mol fraction of the nth substance listed

CCOP(OCC)OCC
Conditions	viscosity [mPa·s]
298.15 K, 101 kPa	0.698

CCCCn1cc[n+](C)c1C.O=S(=O)([N-]S(=O)(=O)C(F)(F)F)C(F)(F)F
101.3 kPa
Conditions	viscosity [mPa·s]
293.15 K	132.9
303.15 K	78.56
308.15 K	62.2
313.15 K	50.15
318.15 K	41.04
323.15 K	34.04

CCCOCC(C)OCC(C)O (stereo not given)
101.33 kPa
Conditions	viscosity [mPa·s]
298.15 K	4.001
308.15 K	2.986
318.15 K	2.271

CCCCCCCCCCCCn1cc[n+](C)c1.O=S(=O)([N-]S(=O)(=O)C(F)(F)F)C(F)(F)F
100 kPa
Conditions	viscosity
298 K	135.9 mPa·s and 150.3 mPa·s
303 K	102.5 mPa·s and 114.4 mPa·s
308 K	79.3 mPa·s and 88.7 mPa·s
313 K	62.31 mPa·s and 70.09 mPa·s
318 K	49.81 mPa·s and 56.18 mPa·s
323 K	39.98 mPa·s and 45.26 mPa·s

CN(C)CCCN
viscosity
Conditions	293.15 K	303.15 K	308.15 K	313.15 K	318.15 K	323.15 K
100 kPa	1.079 mPa·s	0.8997 mPa·s	–	0.7611 mPa·s	–	0.6553 mPa·s
101 kPa	–	0.941 mPa·s	0.8773 mPa·s and 0.862 mPa·s	0.8098 mPa·s and 0.793 mPa·s	0.7531 mPa·s and 0.731 mPa·s	0.7013 mPa·s and 0.678 mPa·s

CC(=O)O.OCCNCCO
viscosity [mPa·s]
Conditions	293.15 K	298.15 K	303.15 K	308.15 K	313.15 K	318.15 K	323.15 K
100 kPa	5750	–	2248	–	1003	–	491.7
101.3 kPa	2115	1363	905.4	617.3	431.4	308.3	225

O=C(O)C1CCCCC1
101 kPa
Conditions	viscosity [mPa·s]
310 K	13.2
320 K	9.26

CC(C)COCCO
Conditions	viscosity [mPa·s]
298.15 K, 101 kPa	3.33

CCCC(=O)[O-].[NH3+]CCO
101 kPa
Conditions	viscosity [mPa·s]
293.15 K	3077
298.15 K	2071
303.15 K	1434
308.15 K	1011
313.15 K	733.5
318.15 K	539.6
323.15 K	397.8

CC(=O)OCCC(C)C
viscosity
Conditions	293.15 K	303.15 K	313.15 K
101 kPa	0.86 mPa·s	0.743 mPa·s and 0.7175 mPa·s and 0.7168 mPa·s	0.642 mPa·s
101.3 kPa	–	0.6997 mPa·s	–

CCCCCCCC/C=C\CCCCCCCC(=O)OCC
viscosity
Conditions	293.15 K	298.15 K	303.15 K	308.15 K	313.15 K	318.15 K	323.15 K
100 kPa	6.414 mPa·s	5.653 mPa·s	4.986 mPa·s	4.435 mPa·s and 4.424 mPa·s	3.919 mPa·s	3.554 mPa·s	3.214 mPa·s
101 kPa	6.413 mPa·s	5.653 mPa·s	4.986 mPa·s	4.424 mPa·s	3.918 mPa·s	3.554 mPa·s	3.214 mPa·s

CCOP(=O)([O-])OCC.CC[N+]1(C)CCCC1
100 kPa
Conditions	viscosity [mPa·s]
293.15 K	440.8
298.15 K	306.8
303.15 K	220
308.15 K	164.1
313.15 K	121.4
318.15 K	92.72
323.15 K	72.98

CCC(=O)O.CCC(=O)[O-].CC[NH+](CC)CCO
101 kPa
Conditions	viscosity [mPa·s]
293.15 K	88.32
298.15 K	66.16
303.15 K	50.6
308.15 K	39.4
313.15 K	31.21
318.15 K	25.1
323.15 K	20.46

CCCCCCCC/C=C\CCCCCCCC(=O)OCC + CCCCCCCCCCCCCCCC
viscosity [mPa·s], [1], 100 kPa
Conditions	x1 = 0.1	x1 = 0.2	x1 = 0.3	x1 = 0.4	x1 = 0.5	x1 = 0.6	x1 = 0.7	x1 = 0.8	x1 = 0.9
293.15 K	3.595	3.805	4.056	4.336	4.643	4.964	5.309	5.671	6.032
298.15 K	3.195	3.382	3.599	3.849	4.12	4.405	4.704	5.019	5.335
303.15 K	2.852	3.009	3.2	3.422	3.657	3.906	4.163	4.434	4.708
308.15 K	2.56	2.705	2.873	3.065	3.269	3.485	3.71	3.946	4.185
313.15 K	2.314	2.443	2.589	2.755	2.928	3.113	3.306	3.508	3.715
318.15 K	2.1	2.217	2.351	2.504	2.662	2.83	3.004	3.186	3.372
323.15 K	1.917	2.023	2.144	2.28	2.421	2.571	2.723	2.887	3.053

C[NH+](C)C.[Cl-] + CC(=O)CCC(=O)O
[1], 101 kPa, x2 = 0.75
Conditions	viscosity [mPa·s]
293.15 K	74.02
303.15 K	42.25
313.15 K	25.57
323.15 K	17.71
